This is an account of results in patent EP0199170A1, “Composition and method for providing cytoprotection of the gastric mucosa in a mammal receiving aspirin” (priority 1985, dated 1986).

One data set relates to Aspirin Lesions. The data set is described as follows: Gastric cytoprotection against aspirin lesions in adjuvant arthritic rats. The class given is in vivo, Sprague-Dawley rats. The conditions noted are these: for Area of Lesion (mm^2), Mean + S.E. / No. of Lesions, Mean + S.E. / No. of Rats with Lesions: single daily oral administration for 16 days; for effectiveness as cytoprotectant against aspirin-induced gastric lesions in arthritic rats: coadministered with aspirin in the adjuvant-induced arthritis assay.

For data set [1], the system named is Acute Inflammation In Rats. The data set is described as follows: Carrageenin model of acute inflammation (paw edema). The class given is in vivo, Sprague-Dawley rats. The conditions noted are these: for inhibition at 100 mg/kg: Rattus norvegicus; for Mean Paw Edema, ml+S.E.: control 1.16±0.1, 9 rats per group. The protocol: Male Sprague-Dawley rats (initial weight of about 200 g.) received a single oral dose of sodium thiosulfate (anhydrous) at either 30, 100 or 300 mg/kg coadministered with 100 mg/kg of aspirin in the carrageenin model of acute inflammation (paw edema) [C.A. Winter et al, "Carrageenin-lnduced Edema in Hind Paw of the Rat as an Assay for Anti-Inflammatory Drugs, "Proc. Soc. Exptl.

Data set [2] relates to Adjuvant Arthritis In Rats. The data set is described as follows: Adjuvant-induced arthritis assay (chronic inflammation, injected hind paw volume). The conditions noted are these: for inhibition at 150 mg/kg: Rattus norvegicus, po, 384 h; for Injected Hind Paw Volume ml + S.E.: adjuvant control 5.57±0.4, normal control 1.89±0.03; for influence on the antiinflammatory efficacy of aspirin: adjuvant-induced arthritis assay, coadministered with aspirin.
Description: 300 mg/kg for 16 days coadministered with 150 mg/kg of aspirin in an adjuvant-induced arthritis assay [C.J. Pearson, "Experimental Joint Disease", J. Chron.

Another data set has as its system male Sprague-Dawley rats. The data set is described as follows: Acute oral toxicity in rats. The conditions noted are these: for toxicity: summary statement. An excerpt: Sodium thiosulfate (anhydrous) was given as a single oral dose to male Sprague-Dawley rats weighing approximately 116-140 g to determine its approximate acute oral LD50. The rats were fasted for four hours before medication, observed for seven days following medication and all surviving rats sacrificed and necropsied at the completion of the study.

Data set [3] relates to Aspirin-induced Gastric Mucosal Erosions. The data set is described as follows: Aspirin-induced hemorrhagic gastric erosions in fasted rats, lesion number and area by computerized planimetry. The class given is in vivo, Sprague-Dawley rats. The conditions noted are these: for gastric cytoprotection: coadministered with acidified aspirin 10 mg/100 g, fasted rats; for Aspirin-induced Gastric Mucosal Erosions, percentage of glandular stomach area / Aspirin-induced Gastric Mucosal Erosions, total number of erosions: sacrificed 1 hour after; for Aspirin-induced Gastric Mucosal Erosions, percentage of glandular stomach area: dose 0 group 1.42; for Aspirin-induced Gastric Mucosal Erosions, total number of erosions: dose 0 group 11.90. The protocol: Fasted Sprague-Dwaley female rats were given intragastrically (ig) at least four different doses ranging from 1-30 mg/100 g. body weight of sodium thiosulfate either 30 minutes before or parallel with intragastric administration of 10 mg/100 g body weight of acidified aspirin. Rats were killed one hour after aspirin administration and the number of hemorrhagic gastric erosions (or_ lesions) was determined and the area of erosion was measured by computerized planimetry.
Fasted Sprague-Dawley Female rats were given intragastrically (ig) at least three different doses ranging from 5-30 mg/100 g body weight of 3,3'-thiobis[propanoic acid] either 30 minutes before or parallel with intragastric administration of 10 mg/100 g body weight of acidified aspirin. Rats were killed one hour after aspirin administration and the number of hemorrhagic gastric erosions (or lesions) was determined and the area of erosion was measured by computerized planimetry. 3,3'-Thiobis[propanoic acid]
All of the experiments in this example were performed in female Sprague-Dawley rats having an initial body weight of 150-200 g. […] Before the administration of aspirin, the rats were fasted over night. […] The extent of gastric mucosal injury was evaluated by a Zeiss stereomicroscope coupled with a computerized planimeter which allowed both surface measurement and counting of lesions, according to the published method of Sandor Szabo et al entitled "A Quantitative Method for Assessing the Extent of Experimental Gastric Erosions and Ulcers", J. Pharmacological Methods 13, 59-66, 1985. Light microscopy of formalin-fixed sections was also performed.
Aspirin was suspended in 1% methylcellulose dissolved in 200 mM HCI and was administered at 10 mg/100 g body weight by gavage with rubber tube (Rusch No. 8) and rats were killed one hour later. The study design is presented as follows in Table A.
In the initial experiment, doses of sodium thiosulfate as its pentahydrate were given per os - (p.o.) either 30 minutes or 30 seconds before aspirin. The. 30 second pretreatment is virtually a parallel administration of the compounds.

Setting [4] is: Table D: 150 mg/kg each, controls 0.
The mark [5] stands for this setting: Table D: 150 mg/kg each, controls 0/10.
[6] abbreviates: Table D: 150 mg/kg each, controls 0, listed as aspirin.
The mark [7] stands for this setting: Table E: aspirin 150 mg/kg, Na thiosulfate 300 mg/kg, controls 0.04±0.04.
The mark [8] stands for this setting: Table E: aspirin 150 mg/kg, Na thiosulfate 300 mg/kg, controls 0.1±0.1.
The mark [9] stands for this setting: Table E: aspirin 150 mg/kg, Na thiosulfate 300 mg/kg, controls 1/10.
Setting [10] is: Table G: 150 mg/kg each, single oral daily doses for 16 days.
Setting [11] is: Table H: aspirin 150 mg/kg, Na thiosulfate 300 mg/kg, single oral daily doses for 16 days.
[12] abbreviates: parallel administration with aspirin 10 mg/100 g, converted from mg/100 g pentahydrate.

Like-named read-outs stand apart in the source and are kept apart here. Marks after values point to notes of the source that are not given here.

Description for Aspirin Lesions: 300 mg/kg for 16 days coadministered with 150 mg/kg of aspirin in an adjuvant-induced arthritis assay [C.J. Pearson, "Experimental Joint Disease", J. Chron. […] At the completion of the assay-the stomachs were excised and examined for the presence or absence of lesions.

For `CC(=O)Oc1ccccc1C(=O)O` [Aspirin, aspirin], the “Area of Lesion (mm^2), Mean + S.E.” value in the data set with Aspirin Lesions (setting [4]) turned out to be 16.02±3.82 mm^2; in the data set on Aspirin Lesions (setting [6]), 16.02 mm^2; in the data set with Aspirin Lesions (setting [7]), 11.61±4.42 mm^2; in the data set with Aspirin Lesions (Table E: aspirin 150 mg/kg, Na thiosulfate 300 mg/kg, controls 0.04±0.04, listed as aspirin) it was 11.61 mm^2. For the same compound, the “No. of Lesions, Mean + S.E.” value with Aspirin Lesions (setting [4]) is given as 15.2±2.9; in the data set on Aspirin Lesions (setting [6]), 15.2; with Aspirin Lesions (setting [8]), 25.7±4.9; in the data set with Aspirin Lesions (Table E: aspirin 150 mg/kg, Na thiosulfate 300 mg/kg, controls 0.1±0.1, listed as aspirin) it was 25.7. Besides, the “No. of Rats with Lesions” value is listed as 10/10 with Aspirin Lesions (setting [5]) and 9/9 in the data set on Aspirin Lesions (setting [9]). Further, the inhibition at 100 mg/kg in data set [1] (po) worked out at 44%. Also, the “Mean Paw Edema, ml+S.E.” value in data set [1] (single oral dose 100 mg/kg) came out at 0.65 ± 0.1 mL. In addition, the inhibition at 150 mg/kg in data set [2] (setting [10]) is 61%; in data set [2] (setting [11]), 43%. Further, the “Injected Hind Paw Volume ml + S.E.” value in data set [2] (setting [10]) worked out at 3.31 ± 0.2 mL.
On to `CCCCC1C(=O)N(c2ccccc2)N(c2ccccc2)C1=O` [Phenylbutazone, phenylbutazone], for which the inhibition at 100 mg/kg in data set [1] (single oral dose 100 mg/kg, paw edema vs control, read-out: % Inhibition) came out at 65%. Besides, in data set [1] (single oral dose 100 mg/kg), the “Mean Paw Edema, ml+S.E.” value turned out to be 0.41 ± 0.03 mL.
With `O=C(O)CCSCCC(=O)O` [TBPA, 3,3'-Thiobis[propanoic acid]], in the data set with Aspirin Lesions, the “effectiveness as cytoprotectant against aspirin-induced gastric lesions in arthritic rats” value is listed as “effectiveness of TBPA as cytoprotectant against ASA-induced gastric lesions was also demonstrated”. Also, in the data set on male Sprague-Dawley rats, the toxicity entry is on record as “low order of toxicity”. The “influence on the antiinflammatory efficacy of aspirin” value (from here on “influence”) in data set [2] is reported as “did not reduce the antiinflammatory efficacy of ASA”. Further, the minimal effective dose in data set [3] (Rattus norvegicus, po, parallel administration with acidified aspirin 10 mg/100 g, intragastric, rats, area and number of lesions, read-out: minimum statistically significant effective dose (MED)) was ~300 mg/kg. In addition, in data set [3] (intragastric), the gastric cytoprotection result is recorded as “significant (p<0.01) gastric cytoprotection”.
Take “anhydrous sodium thiosulfate [Na thiosulfate]”: the results for the “Area of Lesion (mm^2), Mean + S.E.” value with Aspirin Lesions (setting [4]) and in the data set on Aspirin Lesions (setting [7]) were 0.12±0.12 mm^2 and 0 mm^2, respectively. In addition, the “No. of Lesions, Mean + S.E.” value with Aspirin Lesions (setting [4]) was found to be 0.4±0.4; with Aspirin Lesions (setting [8]) it was 0. Further, the results for the “No. of Rats with Lesions” value with Aspirin Lesions (setting [5]) and with Aspirin Lesions (setting [9]) were 1/5 and 0/5, respectively. Further, the “effectiveness as cytoprotectant against aspirin-induced gastric lesions in arthritic rats” value in the data set on Aspirin Lesions was “effective in reducing the number and size of lesions”. Besides, the gastric irritancy result with male Sprague-Dawley rats (at the very high dose level of 7,000 mg/kg, single oral dose) is “gastric irritancy was observed”. In the data set on male Sprague-Dawley rats (single oral dose, male rats fasted four hours, observed 7 days), the “approximate acute oral LD50 (ALDsD)” value is 7,000 mg/kg. In the data set with male Sprague-Dawley rats, the toxicity result is listed as “low order of acute toxicity”. In data set [2] (150 or 300 mg/kg alone, single oral daily doses for 16 days), the “effect on the development of arthritis” value was “did not demonstrate an effect on the development of arthritis”. Moreover, the “% Inhibition” value in data set [2] (setting [10]) is 10%; in data set [2] (setting [11]) it was 2%. The “Injected Hind Paw Volume ml + S.E.” value in data set [2] (setting [10]) came to 5.21 ± 0.5 mL. Further, the “influence” value in data set [2] is recorded as “did not influence the anti-inflammatory efficacy of aspirin”. In addition, the “minimum statistically significant effective dose, as anhydrous form” value in data set [3] (coadministered with aspirin 10 mg/100 g, anhydrous equivalent of the pentahydrate dose) is “about 3 mg/100 g”. In data set [3] (setting [12]), the “minimum statistically significant effective dose (MED)” value was “about 32 mg/kg”.
As to sodium thiosulfate, the toxicity entry with male Sprague-Dawley rats is on record as “low order of toxicity”. The “influence” value in data set [2] is “did not reduce the antiinflammatory efficacy of aspirin”. Besides, the gastric cytoprotection result in data set [3] (intragastric) is given as “significant (p<0.01) gastric cytoprotection”.
sodium thiosulfate pentahydrate: in data set [3] (given p.o. 30 minutes before aspirin 10 mg/100 g), the “protection against aspirin-induced gastric erosions” value is “dose-dependent protection”. The “minimum statistically significant effective dose (MED)” value in data set [3] (parallel administration with acidified aspirin 10 mg/100 g, intragastric, rats, area and number of lesions, listed as sodium thiosulfate as its pentahydrate) is “about 5 mg/100 g”; in data set [3] (parallel administration with aspirin 10 mg/100 g, converted from mg/100 g) it was “about 201 µmol/kg”; in data set [3] (setting [12]), “about 50 mg/kg”. For the same compound, the “Aspirin-induced Gastric Mucosal Erosions, percentage of glandular stomach area” value in data set [3] (single oral dose 1.0 mg/100 g body weight, aspirin concomitantly 10 mg/100 g in acidified 1% methylcellulose) is 0.89 percentage of glandular stomach area; in data set [3] (single oral dose 5.0 mg/100 g body weight, aspirin concomitantly 10 mg/100 g, p<0.01), 0.18* percentage of glandular stomach area; in data set [3] (single oral dose 10.0 mg/100 g body weight, aspirin concomitantly 10 mg/100 g, p<0.01) it was 0.27* percentage of glandular stomach area; in data set [3] (single oral dose 30.0 mg/100 g body weight, aspirin concomitantly 10 mg/100 g, p<0.01) it was 0* percentage of glandular stomach area. Besides, the “Aspirin-induced Gastric Mucosal Erosions, total number of erosions” value was 6.67 in data set [3] (single oral dose 1.0 mg/100 g body weight, aspirin concomitantly 10 mg/100 g); 1.56* in data set [3] (single oral dose 5.0 mg/100 g body weight, aspirin concomitantly 10 mg/100 g, p≤0.01); 1.78* in data set [3] (single oral dose 10.0 mg/100 g body weight, aspirin concomitantly 10 mg/100 g, p≤0.01); 0* in data set [3] (single oral dose 30.0 mg/100 g body weight, aspirin concomitantly 10 mg/100 g, p≤0.01).

Usually inhibition stands for how much of the control response was suppressed. For orientation: % Inhibition means the drop in the measured response relative to a control, in per cent.
